Reference: PubChem BioAssay (NCI)
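GI50: concentration for 50% inhibition of growth. TGI: total growth inhibition.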

Legend:
Assay in all cases: growth of human tumour cells (NCI), 384-well format
[1] = tested on: CAKI-1 renal
[2] = tested on: OVCAR-8 ovarian
[3] = tested on: UO-31 renal
[4] = tested on: HCT-15 colon
[5] = tested on: MDA-MB-468 breast
[6] = tested on: OVCAR-5 ovarian
[7] = tested on: MDA-MB-435 melanoma
[8] = tested on: SK-MEL-5 melanoma
[9] = tested on: U251 glioblastoma
[10] = tested on: MDA-MB-231 breast
[11] = tested on: BT-549 breast
[12] = tested on: HCC-2998 colon
[13] = tested on: SNB-75 CNS
[14] = tested on: NCI/ADR-RES ovarian
[15] = tested on: NCI-H322M lung
[16] = tested on: A549 NSCLC
[17] = tested on: HOP-92 NSCLC
[18] = tested on: SNB-19 CNS
[19] = tested on: SR leukemia
[20] = tested on: HCT-116 colon
[21] = tested on: PC-3 prostate
[22] = tested on: IGROV1 ovarian
[23] = tested on: NCI-H522 lung
[24] = tested on: A498 renal
[25] = tested on: SN12C renal
[26] = tested on: 786-0 renal
[27] = tested on: TK-10 renal
[28] = tested on: HOP-62 NSCLC
[29] = tested on: HT29 colon
[30] = tested on: SK-OV-3 ovarian
[31] = tested on: KM12 colon
[32] = tested on: MOLT-4 leukemia
[33] = tested on: ACHN renal
[34] = tested on: CCRF-CEM leukemia
[35] = tested on: NCI-H226 lung
[36] = tested on: HS 578T breast
[37] = tested on: LOX IMVI melanoma
[38] = tested on: RXF 393 renal
[39] = tested on: OVCAR-4 ovarian
[40] = tested on: MCF7 breast
[41] = tested on: NCI-H460 NSCLC
[42] = tested on: K-562 leukemia
[43] = tested on: EKVX NSCLC
[44] = tested on: SF-295 CNS
[45] = tested on: COLO 205 colon
[46] = tested on: OVCAR-3 ovarian
[47] = tested on: MALME-3M melanoma
[48] = tested on: SF-268 CNS
[49] = tested on: HL-60(TB) leukemia
[50] = tested on: SF-539 CNS
[51] = tested on: SW-620 colon
[52] = tested on: M14 melanoma
[53] = tested on: RPMI-8226 leukemia
[54] = tested on: DU-145 prostate
[55] = tested on: NCI-H23 lung

Q: Which results are given for `O=C(Nc1ccncc1)C(=O)c1cn(Cc2ccc(Cl)cc2)c2ccccc12`?
A: GI50 [1]: < 10 nM; TGI [1]: > 100000 nM; GI50 [2]: < 10 nM; TGI [2]: 14100 nM; GI50 [3]: < 10 nM; TGI [3]: > 100000 nM; GI50 [4]: < 10 nM; TGI [4]: > 100000 nM; GI50 [5]: < 10 nM; TGI [5]: 20.8 nM; GI50 [6]: 894 nM; TGI [6]: > 100000 nM; GI50 [7]: < 10 nM; TGI [7]: < 10 nM; GI50 [8]: < 10 nM; TGI [8]: 11.6 nM; GI50 [9]: < 10 nM; TGI [9]: 1950 nM; GI50 [10]: 46.8 nM; TGI [10]: > 100000 nM; GI50 [11]: < 10 nM; TGI [11]: > 100000 nM; GI50 [12]: < 10 nM; TGI [12]: 377 nM; GI50 [13]: < 10 nM; TGI [13]: 3230 nM; GI50 [14]: < 10 nM; TGI [14]: < 10 nM; GI50 [15]: 44.8 nM; TGI [15]: > 100000 nM; GI50 [16]: 1090 nM; TGI [16]: > 100000 nM; GI50 [17]: 10.4 nM; TGI [17]: 34300 nM; GI50 [18]: 13.8 nM; TGI [18]: > 100000 nM; GI50 [19]: < 10 nM; TGI [19]: < 10 nM; GI50 [20]: < 10 nM; TGI [20]: > 100000 nM; GI50 [21]: < 10 nM; TGI [21]: > 100000 nM; GI50 [22]: < 10 nM; TGI [22]: > 100000 nM; GI50 [23]: < 10 nM; TGI [23]: < 10 nM; GI50 [24]: 30.5 nM; TGI [24]: > 100000 nM; GI50 [25]: 17.3 nM; TGI [25]: > 100000 nM; GI50 [26]: < 10 nM; TGI [26]: 2010 nM; GI50 [27]: < 10 nM; TGI [27]: 72200 nM; GI50 [28]: < 10 nM; TGI [28]: 24100 nM; GI50 [29]: < 10 nM; TGI [29]: > 100000 nM; GI50 [30]: 25 nM; TGI [30]: > 100000 nM; GI50 [31]: < 10 nM; TGI [31]: > 100000 nM; GI50 [32]: < 10 nM; TGI [32]: < 10 nM; GI50 [33]: < 10 nM; TGI [33]: > 100000 nM; GI50 [34]: < 10 nM; TGI [34]: 16.5 nM; GI50 [35]: < 10 nM; TGI [35]: 787 nM; GI50 [36]: < 10 nM; TGI [36]: < 10 nM; GI50 [37]: < 10 nM; TGI [37]: > 100000 nM; GI50 [38]: < 10 nM; TGI [38]: < 10 nM; GI50 [39]: 23 nM; TGI [39]: > 100000 nM; GI50 [40]: < 10 nM; TGI [40]: > 100000 nM; GI50 [41]: < 10 nM; TGI [41]: 52.7 nM; GI50 [42]: < 10 nM; TGI [42]: 11.9 nM; GI50 [43]: < 10 nM; TGI [43]: > 100000 nM; GI50 [44]: < 10 nM; TGI [44]: < 10 nM; GI50 [45]: 126 nM; TGI [45]: 353 nM; GI50 [46]: < 10 nM; TGI [46]: < 10 nM; GI50 [47]: < 10 nM; TGI [47]: 23400 nM; GI50 [48]: < 10 nM; TGI [48]: > 100000 nM; GI50 [49]: < 10 nM; TGI [49]: < 10 nM; GI50 [50]: < 10 nM; TGI [50]: 24.7 nM; GI50 [51]: < 10 nM; TGI [51]: > 100000 nM; GI50 [52]: < 10 nM; TGI [52]: 36.8 nM; GI50 [53]: < 10 nM; TGI [53]: < 10 nM; GI50 [54]: 20.8 nM; TGI [54]: > 100000 nM; GI50 [55]: < 10 nM; TGI [55]: 67.4 nM
